Test results taken from PMC6792352, “Limited Chemical Structural Diversity Found to Modulate Thyroid Hormone Receptor in the Tox21 Chemical Library” (Environmental Health Perspectives, 2019).
Where a name gives a salt, the structure may show the parent alone.

Test: in vitro
Settings: rat, gh3-tre-luc cells

| SMILES | CC50 at 24 h (AC50 (uM) modified / 1000) | further results |
| --- | --- | --- |
| Nc1nc(N)c(-c2ccccc2)s1 [Amiphenazole] | > 50 µM | – |
| COC1=C(C(=O)O)N2C(=O)[C@@H](NC(=O)[C@H](N)C3=CCC=CC3)[C@H]2SC1 [Cefroxadine] | > 50 µM | – |
| CCN(CC)CCNC(C(=O)OCCC(C)C)c1ccccc1 (stereo not shown) [Camylofin] | > 50 µM | – |
| CC(C)c1ccc(C(C)C)cc1 [1,4-Diisopropylbenzene] | > 90 µM | – |
| C[C@@H](O)[C@H]1C(=O)N2C(C(=O)O)=C([C@H]3CCCO3)S[C@H]12 [Fropenem] | > 50 µM | – |
| O=P(O)(O)C(Cl)(Cl)P(=O)(O)O [Clodronic acid, disodium salt] | > 50 µM | – |
| CCN(Cc1ccccc1)c1ccccc1 [N-Ethyl-N-phenyl benzylamine] | > 90 µM | – |
| CCO[Si](CCC1CCC2OC2C1)(OCC)OCC (stereo not shown) [Triethoxy[2-(7-oxabicyclo[4.1.0]hept-3-yl)ethyl]silane] | > 90 µM | – |
| COC(=O)c1ccccc1C(=O)OC [Dimethyl phthalate] | > 50 µM | – |
| COc1ccc2c(c1)OC(C)(C)C(c1ccccc1)C2c1ccc(OCCN2CCCC2)cc1 (stereo not shown) [Ormeloxifene] | 6.42 µM | – |
| C=CCSSCCC [Allyl propyl disulfide] | > 90 µM | – |
| CN(C)CCC=C1c2ccccc2C(C)(C)c2ccccc21 [Melitracen hydrochloride] | 19.6 µM | – |
| CC(=O)c1ccccc1O [2-Hydroxyacetophenone] | > 90 µM | – |
| CCCCOCCOCCOC(=O)CCCCC(=O)OCCOCCOCCCC [Bis[2-(2-butoxyethoxy)ethyl] adipate] | > 90 µM | – |
| CCCC(=O)O[C@]1(C(=O)COC(=O)CC)[C@@H](C)C[C@H]2[C@@H]3CCC4=CC(=O)C=C[C@]4(C)[C@@]3(F)[C@@H](O)C[C@@]21C [Betamethasone butyrate propionate] | > 50 µM | – |
| CC(=O)c1c(C)c([N+](=O)[O-])c(C(C)(C)C)c([N+](=O)[O-])c1C [Musk ketone] | 80.9 µM | – |
| C=O [Formalin] | > 100 µM | – |
| O=C(CC(=O)C(F)(F)F)c1ccccc1 [4,4,4-Trifluoro-1-phenyl-1,3-butanedione] | > 90 µM | – |
| Clc1ccnc(Cl)n1 [2,4-Dichloropyrimidine] | > 90 µM | – |
| Nc1ccn([C@H]2CC[C@@H](CO)O2)c(=O)n1 [2',3'-Dideoxycytidine] | > 50 µM | – |
| CCCCN(CCCC)C(=S)S [Sodium dibutylcarbamodithioate] | > 90 µM | – |
| Clc1ccc2nsnc2c1NC1=NCCN1 [Tizanidine] | > 50 µM | – |
| CC(N)=O [Acetamide] | > 200 µM | – |
| c1ccc(CNCc2ccccc2)cc1 [Dibenzylamine] | > 90 µM | – |
| CCCCC(CC)COC(=O)c1c(Br)c(Br)c(Br)c(Br)c1C(=O)OCC(CC)CCCC (stereo not shown) [Bis(2-ethylhexyl) tetrabromophthalate] | – | CC50 at 24 h (AC50 (uM) modified / 1000, Tox21_110001=Tox21_302404, viability, 1 nM T3 present, 24 h): > 70 µM |
| CC(C)C1CCC(O)CC1 (stereo not shown) [4-Isopropylcyclohexanol] | > 90 µM | – |
| CC[N+](C)(CC)CC [N,N-Diethyl-N-methylethanaminium chloride] | > 90 µM | – |

| SMILES | CC50 at 24 h (AC50 (uM) modified / 1000) | further results |
| --- | --- | --- |
| O=C1CN=C(c2ccccc2)c2cc(Cl)ccc2N1CC1CC1 [Prazepam] | > 90 µM | – |
| CCCCCCCCCCCc1ccccc1 [1-Phenylundecane] | > 90 µM | – |
| CC(NNC(=O)c1ccccc1)c1ccccc1 (stereo not shown) [Benmoxin] | > 50 µM | – |
| CC(C)c1ccc2sc3ccccc3c(=O)c2c1 [2-(Propan-2-yl)-9H-thioxanthen-9-one] | > 90 µM | – |
| Cc1nc(-c2ccc(Cl)cc2)oc1COC(C)(C)C(=O)O [Romazarit] | > 50 µM | – |
| CC[C@H]1CC[C@H](NCc2cc3c(cc2OC)[C@H]2C[C@H]2C(=O)N3C)[C@H](c2ccccc2)N1 [CP-728663] | 35.3 µM | – |
| CCN1CCC[C@H]1CNC(=O)c1c(O)c(Cl)cc(Cl)c1OC [Raclopride] | > 50 µM | – |
| O=C(OCC1(COC(=O)c2cccnc2)CCCC(COC(=O)c2cccnc2)(COC(=O)c2cccnc2)C1O)c1cccnc1 [Nicomolol] | > 50 µM | – |
| O=C(O)c1cc(C(=O)O)cc(C(=O)O)c1 [1,3,5-Benzenetricarboxylic acid] | > 90 µM | – |
| O=C(CCl)c1ccc(Oc2ccc(C(=O)CCl)cc2)cc1 [Clofenoxyde] | – | CC50 at 24 h (AC50 (uM) modified / 1000, Tox21_110001=Tox21_111802, viability, 1 nM T3 present, 24 h): > 50 µM |
| N=C(N)NC(=O)Cc1c(Cl)cccc1Cl [Guanfacine hydrochloride] | 31.7 µM | – |
| COc1ccnc(C[S+]([O-])c2nc3ccc(OC(F)F)cc3[nH]2)c1OC (stereo not shown) [Pantoprazole sodium] | > 90 µM | – |
| Cc1cc(O)c(Cl)cc1C [2-Chloro-4,5-dimethylphenol] | > 90 µM | – |
| CCN(CCC#N)c1ccc(N=Nc2c(Cl)cc([N+](=O)[O-])cc2Cl)cc1 [C.I. Disperse Orange 37] | 33.4 µM | – |
| CC(=O)N/N=C/c1ccc([N+](=O)[O-])o1 [Nihydrazone] | 17.4 µM | – |
| Cn1c(CCCC(=O)O)nc2cc(N(CCCl)CCCl)ccc21 [Bendamustine] | > 50 µM | – |
| O=C(NCc1cccnc1)Nc1ccc([N+](=O)[O-])cc1 [Pyrinuron] | – | CC50 at 24 h (AC50 (uM) modified / 1000, Tox21_110001=Tox21_302252, viability, 1 nM T3 present, 24 h): 81.3 µM |
| CC(C)NC(C)C [Diisopropylamine] | – | CC50 at 24 h (AC50 (uM) modified / 1000, Tox21_110001=Tox21_111075, viability, 1 nM T3 present, 24 h): > 50 µM; CC50 at 24 h (AC50 (uM) modified / 1000, Tox21_110001=Tox21_200216, viability, 1 nM T3 present, 24 h): > 90 µM |
| CCCCC[C@H](O)/C=C/[C@H]1[C@H](O)CC(=O)[C@@H]1CCCCCCC(=O)O [Alprostadil] | > 20 µM | – |
| CN1C(=O)COc2c(C(=O)NC3CN4CCC3CC4)cc(Cl)cc21 (stereo not shown) [Azasetron] | 42.1 µM | – |
| NNC(=O)c1cccc(C(=O)NN)c1 [1,3-Benzenedicarboxylic acid, dihydrazide] | > 90 µM | – |
| C=CCOC(=O)COCCC(C)C [Prop-2-en-1-yl (3-methylbutoxy)acetate] | > 90 µM | – |
| COc1ccc(CCO)cc1 [4-Methoxybenzeneethanol] | > 90 µM | – |
| C=CC[N+]1([C@H]2C[C@H]3[C@@H]4CC[C@H]5C[C@H](OC(C)=O)[C@@H](N6CCCCC6)C[C@]5(C)[C@H]4CC[C@]3(C)[C@H]2OC(=O)CC)CCCCC1 [Rapacuronium bromide] | > 50 µM | – |
| CC1(C)S[C@@H]2[C@H](NC(=O)[C@H](NC(=O)N3CCN(S(C)(=O)=O)C3=O)c3ccccc3)C(=O)N2[C@H]1C(=O)O [Mezlocillin] | > 50 µM | – |
| CC=C(CC)C(=O)NC(N)=O [1-(2-Ethylcrotonoyl)urea] | – | CC50 at 24 h (AC50 (uM) modified / 1000, Tox21_110001=Tox21_113550, viability, 1 nM T3 present, 24 h): > 50 µM |
| CCOc1ccc(C(C)(C)COCc2cccc(Oc3ccccc3)c2)cc1 [Etofenprox] | > 90 µM | – |

| SMILES | CC50 at 24 h (AC50 (uM) modified / 1000) | further results |
| --- | --- | --- |
| O=C1CCC(=O)N1Cl [N-Chlorosuccinimide] | > 90 µM | – |
| CCCCOCCOC(C)=O [2-Butoxyethyl acetate] | > 90 µM | – |
| COc1ccc(/C=N/NC(=O)c2ccncc2)cc1OC [Verazide] | > 50 µM | – |
| Cc1occc(=O)c1OC(=O)C(C)C [Maltol isobutyrate] | > 90 µM | – |
| CC(C)Cn1cnc2c(N)nc3ccccc3c21 [Imiquimod] | > 50 µM | – |
| CN(C)CCc1c[nH]c2ccccc12 [N,N-Dimethyltryptamine fumarate] | > 100 µM | – |
| COC(C)(C)CC(C)=O [4-Methoxy-4-methyl-2-pentanone] | > 90 µM | – |
| N[C@H](Cc1c[nH]c2ccccc12)C(=O)O [d-Tryptophan] | > 90 µM | – |
| Oc1cc(Cl)c(Cl)cc1Cl [2,4,5-Trichlorophenol] | – | CC50 at 24 h (AC50 (uM) modified / 1000, Tox21_110001=Tox21_111100, viability, 1 nM T3 present, 24 h): > 50 µM; CC50 at 24 h (AC50 (uM) modified / 1000, Tox21_110001=Tox21_201545, viability, 1 nM T3 present, 24 h): > 90 µM |
| COc1ccc(OC)c(Cl)c1 [2-Chloro-1,4-dimethoxybenzene] | > 90 µM | – |
| Cc1cccc(C)c1NC(=O)CN1CCN(CCCC(c2ccc(F)cc2)c2ccc(F)cc2)CC1 [Lidoflazine] | 11.6 µM | – |
| COC(C)=O [Methyl acetate] | > 90 µM | – |
| ONc1ccccc1 [N-Phenylhydroxylamine] | > 100 µM | – |
| COc1ccccc1N1CCN(CCCCNC(=O)c2ccc(-c3ccc(C(C)=O)cc3)cc2)CC1 [GR 103691] | > 50 µM | – |
| COc1ccc(CCC(C)=O)cc1 [4-(4-Methoxyphenyl)-2-butanone] | > 90 µM | – |
| Cc1ncc([N+](=O)[O-])n1CC(C)O (stereo not shown) [Secnidazole] | > 50 µM | – |
| CC(C)CCCC(C)(C)O [2,6-Dimethyl-2-heptanol] | > 90 µM | – |
| CCN(CC)CC [Triethylamine] | > 100 µM | – |
| Cn1c(=O)c2c(ncn2CC(O)CO)n(C)c1=O (stereo not shown) [Dyphylline] | > 20 µM | – |
| C=CC[C@]1(O)CC[C@H]2[C@@H]3CCC4=CCCC[C@@H]4[C@H]3CC[C@@]21C [Allylestrenol] | 41.6 µM | – |
| Cc1nnc2n1-c1ccc(Cl)cc1C(c1ccccc1Cl)=NC2 [Triazolam] | > 50 µM | – |
| CC/C=C\CC/C=C/C(OCC)OCC [(2E,6Z)-1,1-diethoxynona-2,6-diene] | > 90 µM | – |
| CCCCCCCCCCCCCCCC(=O)OC[C@@H](NC(=O)C(Cl)Cl)[C@H](O)c1ccc([N+](=O)[O-])cc1 [Chloramphenicol palmitate] | > 50 µM | – |
| CS(=O)(=O)NC(=O)CCC/C=C\C[C@H]1C(=O)C[C@@H](O)[C@@H]1/C=C/[C@@H](O)COc1ccccc1 [Sulprostone] | > 50 µM | – |
| C[C@]12CCC(=O)C=C1[C@@H]1C[C@@H]1[C@H]1[C@@H]3[C@@H]4C[C@@H]4[C@@]4(CCC(=O)O4)[C@@]3(C)CC[C@@H]12 [Drospirenone] | > 50 µM | – |
| CC(Cl)(Cl)C(=O)O [Dalapon-sodium] | – | CC50 at 24 h (AC50 (uM) modified / 1000, Tox21_110001=Tox21_201112, viability, 1 nM T3 present, 24 h): > 90 µM |
